# “Also recorded” adds a separate entry of the source.
# Key:
# [1] = system: ADAR1 knockout A549 cells; assay: Viability of ADAR1 knockout A549 cells with interferon or drug treatment; assay type: cell-based, human
# Protocol: For drug treatment assays, cells were plated at a density of 3000 cells per well in a 96-well assay plate. The following day, cells were treated with ruxolitinib (INCB018424) from Selleck Chemicals; MRT67307 hydrocloride (SML0702) from Sigma-Aldrich; human interferon-alphal (#8927) from Cell Signaling; recombinant human IFN-beta 1a (mammalian) protein (114151) and recombinant human IFN-gamma protein (285-IF-100) from R&D Systems. For preincubation drug treatment experiments, cells were plated in the presence of ruxolitinib and were treated with interferon-0 and ruxolitinib the following day. Control wells were treated with dimethylsulfoxide (DMSO). Cell viability was assayed 3 or 6 days after drug treatment with CellTiter-Glo® Luminescent Cell Viability Assay kit (Promega). Viability was normalized to DMSO controls.
# for interferon treatment assays, cells were plated at a low density of 3000 cells per well in a 96-well assay plate. The following day, cells were treated with human interferon-alpha 1 (Cell Signaling, #8927) or recombinant human IFN-beta 1a (mammalian) protein (PBL Assay Science, 114151). Control wells were treated with water. Cell viability was assayed 3 or 6 days after drug treatment with CellTiter-Glo© Luminescent Cell Viability Assay kit (Promega). Viability was normalized to controls. Apoptosis was assayed 3 days after interferon treatment with Caspase-Glo®3/7 Assay kit (Promega). Dose curves were obtained using least-squares nonlinear regression on a standard four-parameter logistic model using GraphPad Prism.
# [2] = system: A549 ADAR1 knockout cells; assay: Immunoblot of interferon regulated genes in ADAR1 knockout cell lines; assay type: cell-based, human; settings: 500 nM
# Protocol: (§1) Cells were lysed in RIPA lysis buffer (Thermo Scientific) supplemented with 1× protease and phosphatase inhibitor cocktails (Roche). Protein extracts were analyzed by standard immunoblotting with the following antibodies: ADAR1 (D7E2M), MDA5 (D74E4), RIG-I (D14G6), ISG15 (22D2), USP18 (D4E7), PKR (#3072), STING (D2P2F), cGAS (D1D3G), IRF9 (D2T8M), PD-L1 (E1L3N), P-IRF3 Ser396 (4D4G), IRF3 (D6I4C), P-TBK1 Ser172 (D52C2), TBK1 (D1B4), P-EIF2α Ser51 (#9721), and EIF2α (D7D3) from Cell Signaling; P-PKR Thr446 (ab32036) from Abcam; R-actin C4 (sc-47778) from Santa Cruz. All antibodies were used at a dilution of 1:1000 except R-actin which was used at 1:4000). The following secondary antibodies were used at 1:5000 dilution: Goat anti-Rabbit IRDye 800CW (LI-COR, 926-32211) and Goat anti-Mouse IRDye […] (LI-COR, 926-68020). All immunoblots were imaged using the LI-COR digital imaging system and ImageJ.
# ADAR1 = assay: Immunoblot of ADAR1 after CRISPR-Cas9 knockout; assay type: cell-based, human; settings: A549 cells
# Protocol: as §1
# guide RNA sequences were designed using the sgRNA designer tool on The RNAi Consortium (TRC) portal (available on the World Wide Web at portals.broadinstitute.org/gpp/public/analysis-tools/sgrnadesign). […] Guide sequences were cloned into the Cas9 expressing lentiviral vector CRISPRv2 (available on the World Wide Web at genomeengineering.org/crispr). For virus production, each CRISPRv2 vector and packaging vectors were introduced into 293T cells via calcium phosphate transfection (Clontech). […]
# [3] = system: HCC366, NCI-H1650 and NCI-H196 cell lines; assay: Cell viability after CRISPR-Cas9 knockout of ADAR1 (CellTiter-Glo); assay type: cell-based, human; settings: 6 days after CRISPR-Cas9 knockout of ADAR1
# Source text: (§2) guide RNA sequences were designed using the sgRNA designer tool on The RNAi Consortium (TRC) portal (available on the World Wide Web at portals.broadinstitute.org/gpp/public/analysis-tools/sgrnadesign). […] Guide sequences were cloned into the Cas9 expressing lentiviral vector CRISPRv2 (available on the World Wide Web at genomeengineering.org/crispr). For virus production, each CRISPRv2 vector and packaging vectors were introduced into 293T cells via calcium phosphate transfection (Clontech). Lentivirus was harvested in RPMI media supplemented with 10% FBS and filtered before addition to each cancer cell line. Infected cells were selected in 2 μg/ml puromycin or 10 μg/ml blasticidin for 7 days. Following this, protein lysates were harvested or cells were plated for proliferation assays in 96 well plates and grown in the presence of RPMI containing 10% FBS and 1 μg/ml puromycin or 5 μg/ml blasticidin. Immunoblotting confirmed decreased protein levels of each gene across the pool of infected cells. For cell viability experiments, cells were plated at a density of 3000 cells per well in a 96-well assay plate. Cell viability was assayed 3 and 6 days later with the CellTiter-Glo® Luminescent Cell Viability Assay kit (Promega). […]
# A549 cells = assay: Cell viability after CRISPR-Cas9 knockout of ADAR1, control cells; assay type: cell-based, human; settings: 6 days after CRISPR-Cas9 knockout of ADAR1
# Source text: as §2
# ADAR = assay: Western blot of ADAR isoforms in B16 cells; assay type: cell-based, mouse; settings: with or without IFNβ addition
# Protocol: Whole cell lysates were prepared in lysis buffer (60 mM Tris HC, 2% SDS, 10% glycerol, complete EDTA-free protease-inhibitor (Roche, Basel, Switzerland), and 500 U/mL benzonase nuclease (Novagen, Merck, Darmstadt, Germany)). Samples were boiled at 100° C. and clarified by centrifugation. Protein concentration was measured with a BCA protein assay kit (Pierce, Dallas, Texas). Fifty to one hundred and fifty micrograms of protein was loaded on 4-12% Bolt® Bis-Tris Plus gels (Life Technologies, Carlsbad, CA) in MES buffer (Life Technologies). Protein was transferred to 0.45 μm nitrocellulose membranes (Bio-Rad, Hercules, CA). Membranes were blocked in Tris-buffered saline plus 0.1% Tween 20 (TBS-T) containing 5% non-fat dry milk for 1 hour at room temperature followed by overnight incubation with primary antibody at 4° C. Membranes were washed with TBS-T and incubated with HRP-conjugated secondary antibodies for 1 hour at room temperature. […] Blots were then analyzed using ImageJ and Adobe® Photoshop® software. […]
# Whole cell lysates were prepared in lysis buffer (60 mM Tris HCl, 2% SDS, 10% glycerol, complete EDTA-free protease-inhibitor (Roche), and 500 U/mL benzonase nuclease (Novagen)). […] Protein concentration was measured with a BCA protein assay kit (Pierce). […] Blots were then analyzed using ImageJ and Adobe Photoshop software. […]
# B16 tumor cells [4] = assay: In vitro cytokine stimulation and growth inhibition assay; assay type: cell-based, mouse; settings: Adar-deficient versus control B16 tumor cells, 72 hours
# Protocol: (§3) FIG. 9 includes 3 panels, identified as panels A, B, and C, which provide exemplary mechanisms of ADAR-induced sensitivity to checkpoint blockade. […] A certain number of B16 tumor cells (50 k; Adar null or control) were stimulated in vitro with cytokine for 72 hours and the cell numbers were then counted. […] A certain number of B16 tumor cells (50 k; Adar null or control) were stimulated with cytokine in vitro, washed to remove cytokine (for IFNβ), and evaluated via IFNβ ELISA. […] A certain number of B16 tumor cells (50 k; Adar null or control) were stimulated in vitro with cytokine for 72 hours and stained for Class I MHC and PD-L1.
# Tumor cells were engineered as noted above and plated in DMEM+10% FBS containing the indicated combinations of cytokines: IFN (1,000 U/ml, PBL), IFN (100 ng/ml, Cell Signaling Technologies), TNF (10 ng/ml, PreproTech). For rescue/re-expression experiments, 10,000 cells were plated in 96-well plates and viable cells were enumerated after 72 hours using Cell Titer-Glo® (Promega, G7570). For all other growth inhibition assays, 50,000 cells were plated in 12-well plates and viable cells were counted after 72 hours using the Countess automated cell counting system (Thermo Fisher Scientific, C10227).
# B16 tumor cells [5] = assay: IFNβ ELISA of tumor cell supernatant; assay type: cell-based, mouse; settings: Adar-deficient B16 tumor cells
# Protocol: as §3
# Cells were seeded at a density of 10,000 cells per well in a 96-well plate. Mouse interferon beta (pbl assay science) was then added. After 24 hrs of incubation at 37° C., the supernatant was aspirated from the wells to remove the mouse interferon beta. The wells were then gently washed once with media. Fresh warm media was then replaced in the wells. After 48 hrs of incubation at 37° C., the supernatant was collected, and the concentration of interferon beta was determined using The VeriKine Mouse Interferon Beta ELISA Kit (pbl assay science).
Molecule,ADAR1 protein (immunoblot) (ADAR1),viability [3],viability (A549 cells),depletion of ADAR isoforms (Western blot) (ADAR),also measured
"Nc1ncn([C@@H]2O[C@H](CO)[C@@H](O)[C@H]2O)c(=O)n1 [azacitidine, 5-azacytidine]",,,,,sensitization to ADAR1 knockout [1]: sensitized A549 cells to ADAR1 knockout; expression of MDA5 [2]: induced expression of interferon regulated gene MDA5; phosphorylation of EIF2α [2]: increased phosphorylation of EIF2α
AGATAGCCATGCTGAGCCAC (chemistry not fully specified) [ADAR1 sg2],knockout of ADAR1 isoforms p150 and p110,decreased viability,no effect on control cells,,
"CACCGTCTACAGCCCTACCTTGCCA (antisense AAACTGGCAAGGTAGGGCTGTAGAC; listed as DNA, chemistry not fully specified) [Mouse Adar sgRNA 2, P110 and P150]",,,,effectively depleted both isoforms,
"CACCGTCTGGATTCACAACTCCAGG (antisense AAACCCTGGAGTTGTGAATCCAGAC; listed as DNA, chemistry not fully specified) [Mouse Adar sgRNA1, P150 only]",,,,"effectively depleted the P150 isoform of ADAR, but not the P110 isoform of ADAR",
GTGCATACACTCAAGCAGTG (chemistry not fully specified) [ADAR1 sg1],knockout of ADAR1 isoforms p150 and p110,decreased viability,no effect on control cells,,
"IFNβ: mouse interferon beta (1000 U/mL, PBL) used on B16 cells (protein, UniProt P01575 22-182, looked up) Interferon beta: INYKQLQLQERTNIRKCQELLEQLNGKINLTYRADFKIPMEMTEKMQKSYTAFAIQEMLQNVFLVFRNNFSSTGWNETIVVRLLDELHQQTVFLKTVLEEKQEERLTWEMSSTALHLKSYYWRVQRYLKLMKYNSYAWMVVRAEIFRNFLIIRRLTRNFQN",,,,,cytokine-induced growth arrest (B16 tumor cells [4]): increases IFNβ and IFNγ-induced growth arrest; also recorded: increases susceptibility to IFNβ and IFNγ; IFNβ secretion after interferon stimulation (B16 tumor cells [5]): make IFNβ when stimulated with IFNβ
